# Experiments:
# Histamine H2 receptor = Histamine H2 receptor (Homo sapiens, UniProt P25021); assay type: cell membranes, CHO-K1, Membrane; note: in other assays of this panel Not Active means under 50% inhibition at 10 µM
# [1] = DRUGMATRIX: Calcium Channel Type L, Phenylalkylamine radioligand binding (ligand: [3H] (-)-Desmethoxyverapamil (D-888)); assay type: cell membranes, Rattus norvegicus, Wistar, Brain, Membrane; details: Not Active = under 50% inhibition at 10 µM
# D(3) dopamine receptor = D(3) dopamine receptor (Homo sapiens, UniProt P35462); test: DRUGMATRIX: Dopamine D3 radioligand binding (ligand: [3H] Spiperone); assay type: cell membranes, CHO, Membrane
# Interstitial collagenase = molecular target: T1, Interstitial collagenase (Homo sapiens, UniProt P03956); test: biochemical; assay type: tissue-based, Rheumatoid synovial fibroblasts;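 note: MMP-1 enzyme inhibition assay using a peptide substrate; in other assays of this panel Not Active means under 50% inhibition at 10 µM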
# T1 sequence (P03956 whole entry): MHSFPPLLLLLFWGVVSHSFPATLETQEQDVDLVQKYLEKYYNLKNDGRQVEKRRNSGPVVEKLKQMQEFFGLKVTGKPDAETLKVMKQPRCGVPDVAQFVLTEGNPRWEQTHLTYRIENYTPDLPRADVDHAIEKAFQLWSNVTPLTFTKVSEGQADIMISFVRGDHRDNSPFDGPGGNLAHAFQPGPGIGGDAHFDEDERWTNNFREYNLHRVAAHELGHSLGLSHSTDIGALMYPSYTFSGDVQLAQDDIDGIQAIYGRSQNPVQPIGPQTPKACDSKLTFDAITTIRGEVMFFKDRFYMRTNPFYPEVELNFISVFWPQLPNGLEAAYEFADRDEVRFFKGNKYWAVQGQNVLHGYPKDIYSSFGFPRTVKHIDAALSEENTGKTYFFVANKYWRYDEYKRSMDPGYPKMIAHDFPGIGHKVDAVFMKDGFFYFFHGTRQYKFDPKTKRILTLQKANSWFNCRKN
# Adenosine receptor A3 = molecular target: T2, Adenosine receptor A3 (Homo sapiens, UniProt P0DMS8); assay type: cell membranes, CHO-K1, Membrane; details: for Ki: read-out: Ki;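 for all read-outs here: radioligand binding assay with AB-MECA serving as the labeled ligand; in other assays of this panel Not Active means under 50% inhibition at 10 µM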
# T2 sequence (P0DMS8 whole entry): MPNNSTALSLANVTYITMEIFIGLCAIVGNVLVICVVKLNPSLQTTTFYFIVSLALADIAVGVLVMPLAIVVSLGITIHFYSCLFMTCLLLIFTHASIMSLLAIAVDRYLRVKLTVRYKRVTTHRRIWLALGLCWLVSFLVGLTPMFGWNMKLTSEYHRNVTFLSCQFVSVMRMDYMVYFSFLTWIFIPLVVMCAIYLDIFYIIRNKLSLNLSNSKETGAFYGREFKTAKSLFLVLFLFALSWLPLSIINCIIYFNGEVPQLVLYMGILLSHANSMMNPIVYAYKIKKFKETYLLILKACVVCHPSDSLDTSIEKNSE
# Sequence of Histamine H2 receptor (P25021 whole entry): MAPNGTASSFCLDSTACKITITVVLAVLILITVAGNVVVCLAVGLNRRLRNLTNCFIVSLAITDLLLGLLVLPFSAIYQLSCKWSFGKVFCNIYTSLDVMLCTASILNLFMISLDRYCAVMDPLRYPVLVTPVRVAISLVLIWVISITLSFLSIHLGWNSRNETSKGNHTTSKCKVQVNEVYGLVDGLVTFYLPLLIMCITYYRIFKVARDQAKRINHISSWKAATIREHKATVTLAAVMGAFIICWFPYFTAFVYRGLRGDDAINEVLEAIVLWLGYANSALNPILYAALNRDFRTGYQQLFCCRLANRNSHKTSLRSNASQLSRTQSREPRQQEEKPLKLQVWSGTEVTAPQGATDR
# Sequence of D(3) dopamine receptor (P35462 whole entry): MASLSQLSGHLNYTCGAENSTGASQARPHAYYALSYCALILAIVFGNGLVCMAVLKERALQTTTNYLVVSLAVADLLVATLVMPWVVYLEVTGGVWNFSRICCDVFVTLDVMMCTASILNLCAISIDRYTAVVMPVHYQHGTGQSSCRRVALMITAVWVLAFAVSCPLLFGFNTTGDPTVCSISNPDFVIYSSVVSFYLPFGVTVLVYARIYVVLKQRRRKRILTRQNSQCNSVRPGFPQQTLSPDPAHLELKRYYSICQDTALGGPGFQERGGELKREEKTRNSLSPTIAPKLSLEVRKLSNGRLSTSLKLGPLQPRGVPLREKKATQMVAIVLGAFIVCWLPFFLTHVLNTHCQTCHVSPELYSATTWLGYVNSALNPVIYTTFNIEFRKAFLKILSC
SMILES,IC50 (Histamine H2 receptor; cho-k1),IC50 [1],Ki [1],IC50 (D(3) dopamine receptor; cho),IC50 (Interstitial collagenase),IC50 (Adenosine receptor A3; cho-k1),IC50 (Adenosine receptor A3; read-out: IC50) [µM],Ki (Adenosine receptor A3) [µM],IC50 (Histamine H2 receptor; read-out: IC50) [µM],Ki (Histamine H2 receptor; read-out: Ki) [µM],IC50 ([1]; read-out: IC50) [µM],Ki ([1]; read-out: Ki) [µM],IC50 (D(3) dopamine receptor; read-out: IC50) [µM],Ki (D(3) dopamine receptor; read-out: Ki) [µM],IC50 (Interstitial collagenase; read-out: IC50) [µM]
C[C@H]1O[C@@H](O[C@H]2[C@@H](O)C[C@H](O[C@H]3[C@@H](O)C[C@H](O[C@H]4CC[C@@]5(C)[C@H](CC[C@@H]6[C@@H]5CC[C@]5(C)[C@@H](C7=CC(=O)OC7)CC[C@]65O)C4)O[C@@H]3C)O[C@@H]2C)C[C@H](O)[C@@H]1O [DIGITOXIN],Not Active,Not Active,Not Active,Not Active,Not Active,Not Active,–,–,–,–,–,–,–,–,–
CCN1CC(CCN2CCOCC2)C(c2ccccc2)(c2ccccc2)C1=O (stereo not drawn) [DOXAPRAM],Not Active,Not Active,Not Active,Not Active,Not Active,Not Active,–,–,–,–,–,–,–,–,–
Cn1c(=O)c2c(ncn2CC2OCCO2)n(C)c1=O [DOXOFYLLINE],Not Active,Not Active,Not Active,Not Active,Not Active,Not Active,–,–,–,–,–,–,–,–,–
COc1cccc2c1C(=O)c1c(O)c3c(c(O)c1C2=O)C[C@@](O)(C(=O)CO)C[C@@H]3O[C@H]1C[C@H](N)[C@H](O)[C@H](C)O1 [DOXORUBICIN],Not Active,Not Active,Not Active,Not Active,Not Active,Not Active,–,–,–,–,–,–,–,–,–
COc1cccc2c1C(=O)c1c(O)c3c(c(O)c1C2=O)C[C@@](O)(C(=O)CO)C[C@@H]3O[C@H]1C[C@H](N)[C@@H](O)[C@H](C)O1 [EPIRUBICIN],Not Active,Not Active,Not Active,Not Active,Not Active,Not Active,–,–,–,–,–,–,–,–,–
C[C@]12CC[C@@H]3c4ccc(OC(=O)c5ccccc5)cc4CC[C@H]3[C@@H]1CC[C@@H]2O [ESTRADIOL BENZOATE],Not Active,Not Active,Not Active,Not Active,Not Active,–,21.8,12.3,–,–,–,–,–,–,–
C[C@]12CC[C@@H]3c4ccc(O)cc4CC[C@H]3[C@@H]1CC[C@@H]2O [ESTRADIOL],Not Active,Not Active,Not Active,Not Active,Not Active,Not Active,–,–,–,–,–,–,–,–,–
CC[C@@H](CO)NCCN[C@@H](CC)CO [ETHAMBUTOL],Not Active,Not Active,Not Active,Not Active,Not Active,Not Active,–,–,–,–,–,–,–,–,–
CC1(C)O[C@@H]2C[C@H]3[C@@H]4C[C@H](F)C5=CC(=O)C=C[C@]5(C)[C@H]4[C@@H](O)C[C@]3(C)[C@]2(C(=O)CO)O1 [FLUNISOLIDE],Not Active,Not Active,Not Active,Not Active,Not Active,Not Active,–,–,–,–,–,–,–,–,–
CC1(C)O[C@@H]2C[C@H]3[C@@H]4C[C@H](F)C5=CC(=O)C=C[C@]5(C)[C@@]4(F)[C@@H](O)C[C@]3(C)[C@]2(C(=O)CO)O1 [FLUOCINOLONE ACETONIDE],Not Active,Not Active,Not Active,Not Active,Not Active,Not Active,–,–,–,–,–,–,–,–,–
CC1(C)O[C@@H]2C[C@H]3[C@@H]4C[C@H](F)C5=CC(=O)CC[C@]5(C)[C@H]4[C@@H](O)C[C@]3(C)[C@]2(C(=O)CO)O1 [FLURANDRENOLIDE],Not Active,Not Active,Not Active,Not Active,Not Active,Not Active,–,–,–,–,–,–,–,–,–
CN(C)c1ccc(C(=C2C=CC(=[N+](C)C)C=C2)c2ccc(N(C)C)cc2)cc1.[Cl-] [GENTIAN VIOLET],–,–,–,–,Not Active,–,4.17,2.35,1.16,1.14,3.44,3.35,0.831,0.282,–
Cc1ccc(S(=O)(=O)NC(=O)NN2CC3CCCC3C2)cc1 (stereo not drawn) [GLICLAZIDE],Not Active,Not Active,Not Active,Not Active,Not Active,Not Active,–,–,–,–,–,–,–,–,–
NC(=O)NO [HYDROXYUREA],Not Active,Not Active,Not Active,Not Active,Not Active,Not Active,–,–,–,–,–,–,–,–,–
CC(C)Cc1ccc(C(C)C(=O)O)cc1 (stereo not drawn) [IBUPROFEN],Not Active,Not Active,Not Active,Not Active,Not Active,Not Active,–,–,–,–,–,–,–,–,–
COc1ccc2c(c1)c(CC(=O)O)c(C)n2C(=O)c1ccc(Cl)cc1 [INDOMETHACIN],Not Active,Not Active,Not Active,Not Active,Not Active,Not Active,–,–,–,–,–,–,–,–,–
CCc1c2c(nc3ccc(OC(=O)N4CCC(N5CCCCC5)CC4)cc13)-c1cc3c(c(=O)n1C2)COC(=O)[C@]3(O)CC [IRINOTECAN],Not Active,Not Active,Not Active,Not Active,–,Not Active,–,–,–,–,–,–,–,–,6.06

SMILES,IC50 (Histamine H2 receptor; cho-k1),IC50 [1],Ki [1],IC50 (D(3) dopamine receptor; cho),IC50 (Interstitial collagenase),IC50 (Adenosine receptor A3; cho-k1),IC50 (Adenosine receptor A3; read-out: IC50) [µM],Ki (Adenosine receptor A3) [µM],IC50 (Histamine H2 receptor; read-out: IC50) [µM],Ki (Histamine H2 receptor; read-out: Ki) [µM],IC50 ([1]; read-out: IC50) [µM],Ki ([1]; read-out: Ki) [µM],IC50 (D(3) dopamine receptor; read-out: IC50) [µM],Ki (D(3) dopamine receptor; read-out: Ki) [µM],IC50 (Interstitial collagenase; read-out: IC50) [µM]
CC(C(=O)O)c1cccc(C(=O)c2ccccc2)c1 (stereo not drawn) [KETOPROFEN],Not Active,Not Active,Not Active,Not Active,Not Active,Not Active,–,–,–,–,–,–,–,–,–
Nc1ccn([C@@H]2CS[C@H](CO)O2)c(=O)n1 [LAMIVUDINE],Not Active,Not Active,Not Active,Not Active,Not Active,Not Active,–,–,–,–,–,–,–,–,–
O=S(=O)([O-])CCS.[Na+] [MESNA],Not Active,Not Active,Not Active,Not Active,Not Active,Not Active,–,–,–,–,–,–,–,–,–
C#C[C@]1(O)CC[C@H]2[C@@H]3CCc4cc(OC)ccc4[C@H]3CC[C@@]21C [MESTRANOL],Not Active,Not Active,Not Active,Not Active,Not Active,Not Active,–,–,–,–,–,–,–,–,–
CC(=O)Nc1cccc(O)c1 [METACETAMOL],Not Active,Not Active,Not Active,Not Active,Not Active,Not Active,–,–,–,–,–,–,–,–,–
Cc1ncc([N+](=O)[O-])n1CCO [METRONIDAZOLE],Not Active,Not Active,Not Active,Not Active,Not Active,Not Active,–,–,–,–,–,–,–,–,–
CC(C)(C(=O)c1cccnc1)c1cccnc1 [METYRAPONE],Not Active,Not Active,Not Active,Not Active,Not Active,Not Active,–,–,–,–,–,–,–,–,–
Oc1ccc(OCc2ccccc2)cc1 [MONOBENZONE],Not Active,Not Active,Not Active,Not Active,Not Active,Not Active,–,–,–,–,–,–,–,–,–
CC(C)(Oc1ccc(C2CCCc3ccccc32)cc1)C(=O)O (stereo not drawn) [NAFENOPIN],Not Active,Not Active,Not Active,Not Active,Not Active,Not Active,–,–,–,–,–,–,–,–,–
COc1ccc2cc([C@H](C)C(=O)O)ccc2c1 [NAPROXEN],Not Active,Not Active,Not Active,Not Active,Not Active,Not Active,–,–,–,–,–,–,–,–,–
CC(C)[C@H]1CC[C@H](C(=O)N[C@H](Cc2ccccc2)C(=O)O)CC1 [NATEGLINIDE],Not Active,Not Active,Not Active,Not Active,Not Active,Not Active,–,–,–,–,–,–,–,–,–
CCN[C@@H]1C[C@H](N)[C@@H](O[C@H]2OC(CN)=CC[C@H]2N)[C@H](O)[C@H]1O[C@H]1OC[C@](C)(O)[C@H](NC)[C@H]1O [NETILMICIN],Not Active,Not Active,Not Active,Not Active,Not Active,Not Active,–,–,–,–,–,–,–,–,–
COC(=O)C1=C(C)NC(C)=C(C(=O)OCC(C)C)C1c1ccccc1[N+](=O)[O-] (stereo not drawn) [NISOLDIPINE],Not Active,Not Active,Not Active,Not Active,Not Active,–,7.12,4.02,–,–,–,–,–,–,–
CCOC(=O)C1=C(C)NC(C)=C(C(=O)OC)C1c1cccc([N+](=O)[O-])c1 (stereo not drawn) [NITRENDIPINE],Not Active,Not Active,Not Active,Not Active,Not Active,Not Active,–,–,–,–,–,–,–,–,–
C#C[C@]1(OC(C)=O)CC[C@H]2[C@@H]3CCC4=CC(=O)CC[C@@H]4[C@H]3CC[C@@]21C [NORETHINDRONE ACETATE],Not Active,Not Active,Not Active,Not Active,Not Active,Not Active,–,–,–,–,–,–,–,–,–
COc1ccc2[nH]c([S+]([O-])Cc3ncc(C)c(OC)c3C)nc2c1 (stereo not drawn) [OMEPRAZOLE],Not Active,Not Active,Not Active,Not Active,Not Active,Not Active,–,–,–,–,–,–,–,–,–

# — ChEMBL document CHEMBL1909046, “DrugMatrix in vitro pharmacology data”
